Several values for one entry are separate records, joined by “and”; a condition that tells them apart may be missing. Identical values can stand only once.

Here are results for 32 compounds from patent US10112939B2, “Tied-back benzamide derivatives as potent rock inhibitors” (Bristol-Myers Squibb Company, priority 2014, dated 2018).

The test system of one assay is IL-1 beta-induced coronary stenosis.
Assay: not given
The note with it: long term treatment; cited from earlier work.
As for `O=S(=O)(c1cccc2cnccc12)N1CCCNCC1` [fasudil], the coronary constrictive remodeling result is reported as “promote a regression of coronary constrictive remodeling” and the coronary stenosis entry is recorded as “progressively reduce coronary stenosis”.

The subject of a further assay is rat stroke model.
Assay: not given
The conditions noted are these: in vivo; cited from earlier work.
Turning to `O=S(=O)(c1cccc2cnccc12)N1CCCNCC1` [fasudil], the “infarct size and neurologic deficit” value was “reduce both the infarct size and neurologic deficit”.

For a further assay, the target named is ROCK2 (Homo sapiens (Human), UniProt O75116). In words: ROCK assay (peptide substrate phosphorylation, LABCHIP 3000 Reader). The format is biochemical.
Sequence of ROCK2 (O75116 whole entry, species assumed): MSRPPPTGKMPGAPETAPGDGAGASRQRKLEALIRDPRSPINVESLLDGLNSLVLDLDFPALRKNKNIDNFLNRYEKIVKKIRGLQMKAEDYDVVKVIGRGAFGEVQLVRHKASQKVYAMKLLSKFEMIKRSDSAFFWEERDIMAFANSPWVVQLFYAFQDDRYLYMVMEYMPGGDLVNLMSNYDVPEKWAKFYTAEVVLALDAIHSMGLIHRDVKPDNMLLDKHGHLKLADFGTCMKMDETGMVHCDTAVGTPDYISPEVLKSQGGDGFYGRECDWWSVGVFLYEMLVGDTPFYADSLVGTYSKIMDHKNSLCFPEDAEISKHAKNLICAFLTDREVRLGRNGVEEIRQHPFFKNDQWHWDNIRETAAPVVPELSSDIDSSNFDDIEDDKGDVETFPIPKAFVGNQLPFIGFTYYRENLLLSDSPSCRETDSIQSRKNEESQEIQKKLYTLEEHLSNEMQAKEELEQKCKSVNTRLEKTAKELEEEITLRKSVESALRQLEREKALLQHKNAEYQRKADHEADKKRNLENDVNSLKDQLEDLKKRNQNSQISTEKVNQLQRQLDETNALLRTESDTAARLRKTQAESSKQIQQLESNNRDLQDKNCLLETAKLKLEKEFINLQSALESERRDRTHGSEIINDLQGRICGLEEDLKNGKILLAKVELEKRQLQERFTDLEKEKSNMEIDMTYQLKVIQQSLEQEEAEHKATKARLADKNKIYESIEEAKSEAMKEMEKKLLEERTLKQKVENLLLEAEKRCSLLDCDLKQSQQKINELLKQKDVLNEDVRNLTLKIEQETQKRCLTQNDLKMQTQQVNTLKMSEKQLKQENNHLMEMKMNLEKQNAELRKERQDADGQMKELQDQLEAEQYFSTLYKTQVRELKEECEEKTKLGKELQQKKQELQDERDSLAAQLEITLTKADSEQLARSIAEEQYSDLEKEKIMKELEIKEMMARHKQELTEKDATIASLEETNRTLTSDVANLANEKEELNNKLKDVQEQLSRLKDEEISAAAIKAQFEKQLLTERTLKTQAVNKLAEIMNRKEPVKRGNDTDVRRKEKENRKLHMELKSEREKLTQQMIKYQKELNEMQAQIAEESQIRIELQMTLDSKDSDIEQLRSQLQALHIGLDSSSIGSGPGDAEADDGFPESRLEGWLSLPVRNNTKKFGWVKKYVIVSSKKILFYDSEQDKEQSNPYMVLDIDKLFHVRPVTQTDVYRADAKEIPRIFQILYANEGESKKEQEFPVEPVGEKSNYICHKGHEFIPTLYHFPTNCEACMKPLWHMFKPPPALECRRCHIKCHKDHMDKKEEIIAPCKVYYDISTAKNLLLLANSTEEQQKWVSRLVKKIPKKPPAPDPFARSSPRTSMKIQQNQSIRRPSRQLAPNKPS
Details: not given
The procedure: Compounds were dissolved in DMSO so that the final concentration of DMSO was <2%, and the reaction was initiated with Rho kinase variants. After incubation, the reaction was terminated by the addition of EDTA and the phosphorylated and non-phosphorylated peptides separated using a LABCHIP® 3000 Reader (Caliper Life Sciences). […] Compounds were tested in dose-response format, and the inhibition of kinase activity was calculated at each concentration of compound.
Broadly, the IC50 is the point on the concentration scale where inhibition reaches its midpoint. Consider `N#Cc1cc(C(=O)N2C[C@H](O)C[C@@H]2c2ccccc2F)ccc1-c1cn[nH]c1` [Example 96, 5-[(2R,4R)-2-(2-Fluorophenyl)-4-hydroxypyrrolidine-1-carbonyl]-2-(1H-pyrazol-4-yl)benzonitrile], for which 667 nM corresponded to half-maximal inhibition (IC50).
On the same count and under the same terms, as for `COc1cc(C(=O)N2CCC[C@@H]2C(=O)N2CCc3ccccc32)ccc1-c1cn[nH]c1` [Example 111, 1-[(2R)-1-[3-Methoxy-4-(1H-pyrazol-4-yl)benzoyl]pyrrolidine-2-carbonyl]-2,3-dihydro-1H-indole], the figure is 504 nM.

Staying with this assay, now noted: 5 μM ATP, 1.5 μM peptide substrate.
Compound `COc1cc(C(=O)N2CC(F)(F)C[C@@H]2c2cccc(C(=O)NC3CC3)c2)ccc1-c1cn[nH]c1` [Example 80, N-Cyclopropyl-3-[(2R)-4,4-difluoro-1-[3-methoxy-4-(1H-pyrazol-4-yl)benzoyl]pyrrolidin-2-yl]benzamide] yielded an IC50 of 5.4 nM.
Same read-out and setting: to `COc1cccc(C2CCCN2C(=O)c2ccc(-c3ccnc(N)c3)c(OC)c2)c1` (stereo not shown) [Example 81, 4-{2-Methoxy-4-[2-(3-methoxyphenyl)pyrrolidine-1-carbonyl]phenyl} pyridin-2-amine] belongs 158 nM.
Compound `COc1cccc(C2CCCN2C(=O)c2ccc(-c3ccnc4[nH]ccc34)c(OC)c2)c1` (stereo not shown) [Example 82, 1-(3-methoxy-4-{1H-pyrrolo[2,3-b]pyridin-4-yl}benzoyl)-2-(3-methoxyphenyl) pyrrolidine] yielded an IC50 of 56.8 nM. Against the preceding compound, the IC50 is about 2.8-fold lower.
The same measure, in the same setting: to `COc1cccc(C2CCCN2C(=O)c2ccc(-c3ccnc(F)c3)c(OC)c2)c1` (stereo not shown) [Example 83, 2-fluoro-4-{2-methoxy-4-[2-(3-methoxyphenyl)pyrrolidine-1-carbonyl]phenyl}pyridine] belongs 153 nM; to `COc1cccc(C2CCCN2C(=O)c2ccc(-c3ccncc3F)c(OC)c2)c1` (stereo not shown) [Example 84, 3-fluoro-4-{2-methoxy-4-[2-(3-methoxyphenyl)pyrrolidine-1-carbonyl]phenyl}pyridine], 24.1 nM.
Still for that read-out and setting: to `COc1cc(C(=O)N2CC(OC)C[C@@H]2c2cccc(C(=O)NCC3CC3)c2)ccc1-c1cn[nH]c1` (stereo partly drawn) [Example 86, N-(Cyclopropylmethyl)-3-[(2R)-4-methoxy-1-[3-methoxy-4-(1H-pyrazol-4-yl)benzoyl]pyrrolidin-2-yl]benzamide] belongs 5.42 nM.
Compound `COc1cc(C(=O)N2CC(OC)C[C@@H]2c2cccc(C(=O)N(C)CC3CC3)c2)ccc1-c1cn[nH]c1` (stereo partly drawn) [Example 87, N-(Cyclopropylmethyl)-3-[(2R)-4-methoxy-1-[3-methoxy-4-(1H-pyrazol-4-yl)benzoyl]pyrrolidin-2-yl]-N-methylbenzamide] showed a half-maximal inhibitory concentration (IC50) of 461 nM.
`COc1cc(C(=O)N2C[C@](C)(O)C[C@@H]2c2cccc(C(=O)NCC3CC3)c2)ccc1-c1cn[nH]c1` [Example 88, N-(Cyclopropylmethyl)-3-[(2R,4R)-4-hydroxy-1-[3-methoxy-4-(1H-pyrazol-4-yl)benzoyl]-4-methylpyrrolidin-2-yl]benzamide] returned an IC50 of 10.6 nM.
The same measure, in the same setting: to `COc1cc(C(=O)N2CC(OC(C)=O)C[C@@H]2c2cccc(S(C)(=O)=O)c2)ccc1-c1cn[nH]c1` (stereo partly drawn) [Example 89, (5R)-5-(3-Methanesulfonylphenyl)-1-[3-methoxy-4-(1H-pyrazol-4-yl)benzoyl]pyrrolidin-3-yl acetate] belongs 784 nM; to `COc1cc(C(=O)N2CC(O)C[C@@H]2c2cccc(S(C)(=O)=O)c2)ccc1-c1cn[nH]c1` (stereo partly drawn) [Example 90, (5R)-5-(3-Methanesulfonylphenyl)-1-[3-methoxy-4-(1H-pyrazol-4-yl)benzoyl]pyrrolidin-3-ol], 86 nM; to `COc1cc(C(=O)N2C[C@H](O)C[C@@H]2c2ccccc2F)ccc1-c1cn[nH]c1` [Example 92, (3R,5R)-5-(2-Fluorophenyl)-1-[3-methoxy-4-(1H-pyrazol-4-yl)benzoyl] pyrrolidin-3-ol], 8.03 nM.
Same read-out and setting: as for `COc1cc(C(=O)N2C[C@@H](O)C[C@@H]2c2ccccc2F)ccc1-c1cn[nH]c1` [Example 93, (3S,5R)-5-(2-Fluorophenyl)-1-[3-methoxy-4-(1H-pyrazol-4-yl)benzoyl] pyrrolidin-3-ol], the figure is 4.52 nM.
The same measure, in the same setting: to `O=C(c1ccc(-c2cn[nH]c2)c(OC(F)F)c1)N1C[C@H](O)C[C@@H]1c1ccccc1F` [Example 94, (3R,5R)-1-[3-(Difluoromethoxy)-4-(1H-pyrazol-4-yl)benzoyl]-5-(2-fluorophenyl)pyrrolidin-3-ol] belongs 73.3 nM; to `O=C(c1ccc(-c2cn[nH]c2)c(OC(F)F)c1)N1C[C@@H](O)C[C@@H]1c1ccccc1F` [Example 95, (3S,5R)-1-[3-(Difluoromethoxy)-4-(1H-pyrazol-4-yl)benzoyl]-5-(2-fluorophenyl)pyrrolidin-3-ol], 44.1 nM and 28.4 nM.
Compound `N#Cc1cc(C(=O)N2C[C@H](O)C[C@@H]2c2ccccc2F)ccc1-c1cn[nH]c1` [Example 97, 5-[(2R)-2-(2-Fluorophenyl)-4-hydroxypyrrolidine-1-carbonyl]-2-(1H-pyrazol-4-yl)benzonitrile] registered an IC50 of 721 nM.
With `COc1cc(-c2cn[nH]c2)ccc1C(=O)N1C[C@H](O)C[C@@H]1c1ccccc1F` [Example 98, (3R,5R)-5-(2-Fluorophenyl)-1-[2-methoxy-4-(1H-pyrazol-4-yl)benzoyl] pyrrolidin-3-ol], the 50% inhibitory concentration (IC50) is 723 nM.
The same measure, in the same setting: as for `CS(=O)(=O)c1cccc([C@H]2CC(O)CN2C(=O)c2ccc(-c3ccnc4[nH]ccc34)cc2)c1` (stereo partly drawn) [Example 99, (5R)-5-(3-methanesulfonyl-phenyl)-1-(4-{1H-pyrrolo [2,3-b]pyridin-4-yl}benzoyl) pyrrolidin-3-ol], the figure is 614 nM.
`COc1cccc(C2CCCN2C(=O)c2ccc(-c3cn[nH]c3)c(C(C)O)c2)c1` (stereo not shown) [Example 100, 1-{5-[2-(3-Methoxyphenyl)pyrrolidine-1-carbonyl]-2-(1H-pyrazol-4-yl)phenyl}ethan-1-ol] had an IC50 of 228 nM.
In turn, `CCc1cc(C(=O)N2CC(O)C[C@@H]2c2ccccc2F)ccc1-c1cn[nH]c1` (stereo partly drawn) [Example 101, (5R)-1-[3-Ethyl-4-(1H-pyrazol-4-yl)benzoyl]-5-(2-fluorophenyl) pyrrolidin-3-ol] registered an IC50 of 65.1 nM.
On the same count and under the same terms, to `COc1cc(C(=O)N2CCCC2c2cccc(OCC(F)F)c2)ccc1-c1cn[nH]c1` (stereo not shown) [Example 102, 4-(4-{2-[3-(2,2-Difluoroethoxy)phenyl]pyrrolidine-1-carbonyl}-2-methoxyphenyl)-1H-pyrazole] belongs 411 nM; to `COc1cc(C(=O)N2CCCC2c2cccc(OCc3cc(C)on3)c2)ccc1-c1cn[nH]c1` (stereo not shown) [Example 103, 3-(3-{1-[3-Methoxy-4-(1H-pyrazol-4-yl)benzoyl]pyrrolidin-2-yl}phenoxymethyl)-5-methyl-1,2-oxazole], 62 nM.
In the case of `COc1cc(C(=O)N2CCCC2c2cccc(OC3CCN(C)CC3)c2)ccc1-c1cn[nH]c1` (stereo not shown) [Example 104, 4-(3-{1-[3-Methoxy-4-(1H-pyrazol-4-yl)benzoyl]pyrrolidin-2-yl}phenoxy)-1-methylpiperidine], the midpoint of inhibition, the IC50, lay at 1390 nM.
Same read-out and setting: as for `COc1cc(C(=O)N2CCCC2c2cccc(NC3CCN(C)CC3)c2)ccc1-c1cn[nH]c1` (stereo not shown) [Example 105, N-(3-{1-[3-Methoxy-4-(1H-pyrazol-4-yl)benzoyl]pyrrolidin-2-yl}phenyl)-1-methylpiperidin-4-amine], the figure is 278 nM.
`COc1cc(C(=O)N2C[C@@H](N)C[C@@H]2c2ccccc2F)ccc1-c1cn[nH]c1` [Example 106, (3S,5R)-5-(2-Fluorophenyl)-1-[3-methoxy-4-(1H-pyrazol-4-yl)benzoyl] pyrrolidin-3-amine] showed an IC50 of 0.87 nM.
Same read-out and setting: to `COc1cc(C(=O)N2C[C@H](N)C[C@@H]2c2ccccc2F)ccc1-c1cn[nH]c1` [Example 107, (3R,5R)-5-(2-Fluorophenyl)-1-[3-methoxy-4-(1H-pyrazol-4-yl)benzoyl] pyrrolidin-3-amine] belongs 1.65 nM; to `COc1cc(C(=O)N2CC(O)C[C@@H]2c2ccc3cn[nH]c3c2)ccc1-c1cn[nH]c1` (stereo partly drawn) [Example 108, (5R)-5-(1H-Indazol-6-yl)-1-[3-methoxy-4-(1H-pyrazol-4-yl)benzoyl] pyrrolidin-3-ol], 7.65 nM.
In turn, `COc1cc(C(=O)N2CC(O)C[C@@H]2c2ccc3c(I)n[nH]c3c2)ccc1-c1cn[nH]c1` (stereo partly drawn) [Example 109, (5R)-5-(3-Iodo-1H-indazol-6-yl)-1-[3-methoxy-4-(1H-pyrazol-4-yl)benzoyl]pyrrolidin-3-ol] displayed an IC50 of 902 nM. Against the preceding compound, the IC50 is about 120-fold higher.
For `COc1cc(C(=O)N2CCC[C@@H]2C(=O)Nc2ccccc2)ccc1-c1cn[nH]c1` [Example 110, (2R)-1-[3-Methoxy-4-(1H-pyrazol-4-yl)benzoyl]-N-phenylpyrrolidine-2-carboxamide], it took 463 nM to reach half-maximal inhibition (IC50).
Still for that read-out and setting: to `CCNS(=O)(=O)c1cccc([C@H]2CCCN2C(=O)c2ccc(-c3cn[nH]c3)c(OC)c2)c1` [Example 112, N-Ethyl-3-[(2R)-1-[3-methoxy-4-(1H-pyrazol-4-yl)benzoyl]pyrrolidin-2-yl]benzene-1-sulfonamide] belongs 15.2 nM.
